Source: PMC9709406 (Frontiers in Pharmacology, 2022)
“And” between values parts separate entries of the source, which are not always exact repeats. Equal values may be shown once. Read-outs that look alike come from different tables or passages of the source.

How the values were obtained:
[1] = target: T1, EGFR wild protein (H672-A1210) (Homo sapiens, UniProt P00533); assay: EGFR protein affinity determined with SPR; type: binding; conditions: immobilized wild-type EGFR
T1 construct: purchased Active MOTIF 31165
Experimental: Firstly, EGFR protein (protein concentration : 0.468 μg/μL, Active MOTIF, cat: 31165, lot: 28215004) was covalently immobilized onto a CM5 sensor chip at densities of 2000 response units. […] During the drug-protein interaction, the change of the refractive index was measured in real-time which would allow the plotting of the results of interaction as response units versus time. The interaction results were analyzed under a BIA evaluation 3.0 software.

[2] = system: KYSE410 cells; assay: MTT assay, KYSE410; type: cell-based, human; conditions: for IC50: Homo sapiens, KYSE-410
Procedure, shortened: (§1)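 Viability was assessed by MTT at 490 nm after two days of compound treatment (0–50 μM) in RPMI-1640 with 10% FBS.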

[3] = system: KYSE410TR cells; assay: MTT assay, taxol-resistant KYSE410TR; type: cell-based, human; conditions: for blank-corrected absorbance 490 nm relative to control (fraction) / inhibition (1 minus fraction of control): 410TR
Excerpt: The human cancer cells (H1650, H1975, KYSE70, KYSE410 and KYSE450) were purchased from the Type Culture Collection of the Chinese Academy of Sciences (Shanghai, China). The human immortalized normal esophageal epithelial cell line SHEE was donated by Dr. Enmin Li from the Laboratory of Tumor Pathology (Shantou University Medical College, Shantou, Guangdong, China). Drug-resistant cells (H1650TR, H1975OR, KYSE70TR, KYSE410TR and KYSE450TR) were induced by China-US (Henan) Hormel Cancer Institute. The cellswere cultured in RPMI-1640 complete growth medium containing 100 U/mL penicillin-streptomycin and 10% FBS. Based on the above medium formula, 100 nm/L paclitaxel was added in taxol-resistant cells, 100 nm/L gefitinib was added in gefitinib-resistant cells. The cells were incubated at 37 °C in an atmosphere containing 5% of CO2. The compounds were dissolved in DMSO to make a 50 mM stock solution and were diluted to the concentration of working solutions with complete growth medium before administration.
Cells were seeded in 96-well plates with 2,200–2,500 cells/well in100 μL. One day after seeding, test compounds with the concentration between 0 and 50 μM were added with 0.1% DMSO as control. Five multiple wells for each concentration. […] The absorbance at 490 nm was measured using a microplate reader (Thermo).

[4] = system: KYSE450TR cells; assay: Annexin V/PI flow cytometry for apoptosis, KYSE450TR; type: cell-based, human; conditions: 48 h
Experimental: (§2) Cell-apoptosis analysis was carried out by flow cytometry using the Annexin V/PI apoptosis methods. […] Cells were harvested and incubated with 250 μL of 1 × Annexin V binding buffer containing 5 μL PI and 5 μL FITC Annexin V (final concentration 1.8 μg/ml, Biolegend (cat: 640945) for 15 min at room temperature in dark. 200 µL of 1 × binding buffer was added for flow cytometry analysis (BD FACSCalibur™ Flow Cytometer).

[5] = system: H1975 cells; assay: MTT assay for cell proliferation and cytotoxicity, H1975; type: cell-based, human; conditions: Homo sapiens, NCI-H1975, 48 h, MTT, 48 h, H1975, n = 5; read-out: IC50 48 h H1975
Procedure, shortened: as §1

[6] = system: KYSE450 cells; assay: Cell cycle analysis by flow cytometry, KYSE450; type: cell-based, human; conditions: KYSE450, 24 h; icotinib at 2 μM, 3l at 8 μM
Experimental: KYSE450/KYSE450TR cells were plated in 6-well plates with a density of 1×10^5 cells/well and cultured overnight. […] Trypsinization treatment and the cells were collected by centrifugation. The cell pellet was re-suspended in 70% ethanol at −20°C for at least 3 h. The cells were washed with PBS and were re-suspended in 250 μL of 0.6% tricine with Renease A for 1 h, then stained in PI (final concentration 1.8 μg/ml, Biolegend cat: 640945) for 15 min in dark. Cells were retransferred to the BD FACSCalibur™ Flow Cytometer. All analyses were performed with FlowJo software v105.3.6.

[7] = system: KYSE450 cells; assay: Annexin V/PI flow cytometry for apoptosis, KYSE450; type: cell-based, human; conditions: 48 h
Experimental: as §2

[8] = system: KYSE450 cell-derived xenograft; assay: In vivo cell-derived xenograft (CDX) mouse model; set-up: species or system nu/nu nude mice
Experimental: Mice were housed under specific pathogen-free conditions. All animal experiments were approved by the Bioethics Committee of Zhengzhou University and followed the guidelines set by the Institutional Animal Care and Use Committee (CUHCI2019002, CUHCI2021001, and CUHCI2021005). To generate the cell-derived xenograft (CDX) mouse model, nu/nu nude mice (Vital River Labs., Beijing, China) were subcutaneously injected with 5 × 10^6 cells (KYSE450). […] Tumor volume was calculated as follows: length × width × height × 0.5. Tumor size and mice weight were measured every 2–3 days. Compounds were administered for 15 days. The tumors were extracted for weighting, immunohistochemistry and immunofluorescence studies.
Frozen sections were washed three times with PBS and incubated overnight at 4°C with Ki-67 antibody. The next day, sections were washed three times and incubated with secondary antibody in PBS. After several washes, slides were counterstained with DAPI (Solarbio). The sections were mounted on microscope and imaged using fluorescent microscopy (Nikon, Tokyo, Japan). Image-Pro Plus 6.0 was used to analyze the fluorescence intensity.
Histological sections were dewaxed, antigens were repaired and sealed with serum in sequence. Next, histological sections were incubated overnight with diluted primary antibodies (1 : 500 dilution), and the control specimens were treated with PBS. The sections were washed 3 times with PBS. Secondary antibody was added and the system was then placed at 37 °C for half an hour. The systems were washed 3 times with PBS. Color developing agent was added. After washing with water, the system was soaked in hematoxylin for 0.5 min for dyeing. The re-dyed slides were washed with water, and then dehydrated. Neutral gums were dropped on the side of the tissue. The slices were then covered with cover glass, sealed and placed in a ventilator for drying. Immunohistochemical staining analysis was then carried out with Image-Pro Plus 6.0.

[9] = nude mice, 50 mg/kg i.p. every day, 15 days, vs control group and icotinib group

T1 sequence (P00533 672-1210): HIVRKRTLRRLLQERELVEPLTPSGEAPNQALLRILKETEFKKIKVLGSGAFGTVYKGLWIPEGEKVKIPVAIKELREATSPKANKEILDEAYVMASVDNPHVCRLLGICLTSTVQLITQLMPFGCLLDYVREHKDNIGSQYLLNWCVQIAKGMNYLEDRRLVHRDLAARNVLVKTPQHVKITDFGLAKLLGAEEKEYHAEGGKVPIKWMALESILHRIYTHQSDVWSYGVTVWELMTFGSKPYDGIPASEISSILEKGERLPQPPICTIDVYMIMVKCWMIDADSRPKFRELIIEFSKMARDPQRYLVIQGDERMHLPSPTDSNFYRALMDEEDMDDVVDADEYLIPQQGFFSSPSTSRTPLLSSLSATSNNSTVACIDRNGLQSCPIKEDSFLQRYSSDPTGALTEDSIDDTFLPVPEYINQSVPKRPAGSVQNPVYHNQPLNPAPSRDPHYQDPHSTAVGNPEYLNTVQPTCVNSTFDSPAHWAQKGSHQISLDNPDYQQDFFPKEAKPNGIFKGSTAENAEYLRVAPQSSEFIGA

## FC(F)(F)c1ccc(-n2cc(-c3cccc(Nc4ncnc5cc6c(cc45)OCCOCCOCCO6)c3)nn2)cc1 [compound 3l]
[1]
  Rmax(RU): 25.21 RU
[1]; 25°C
  Kd: 8.23 µM and 8.24 µM
[2]; KYSE410, MTT, 490 nm, read-out: IC50
  IC50: 7 µM
[2]; MTT, 48 h, KYSE410, n = 5, read-out: IC50 48 h KYSE410
  IC50: 5.94 ± 0.41 µM
[2]; KYSE410, concentration 3.5
  blank-corrected absorbance 490 nm relative to control (fraction): 0.6286
  inhibition (1 minus fraction of control): 0.3714
[2]; KYSE410, concentration 7
  blank-corrected absorbance 490 nm relative to control (fraction): 0.487
  inhibition (1 minus fraction of control): 0.513
[2]; KYSE410, concentration 14
  blank-corrected absorbance 490 nm relative to control (fraction): 0.3214
  inhibition (1 minus fraction of control): 0.6786
[3]; concentration 4
  blank-corrected absorbance 490 nm relative to control (fraction): 0.5568
  inhibition (1 minus fraction of control): 0.4432
[3]; concentration 8
  blank-corrected absorbance 490 nm relative to control (fraction): 0.3771
  inhibition (1 minus fraction of control): 0.6229
[3]; concentration 16
  blank-corrected absorbance 490 nm relative to control (fraction): 0.2345
  inhibition (1 minus fraction of control): 0.7655
[3]; Homo sapiens, MTT, 48 h, taxol-resistant KYSE410TR, value in parentheses, read-out: IC50 48 h KYSE410TR (data in parentheses) (converted)
  IC50: 5.3 µM
[4]; 5 μM
  proportion of apoptotic cells: 32.12%
[4]; 10 μM
  proportion of apoptotic cells: 83.69%
[5]
  IC50: 3.26 ± 0.26 µM
[6]
  cell cycle phase in which cells were arrested: G2/M phase
[7]; KYSE450, 2 μM
  proportion of apoptotic cells: 24.32%
[7]; KYSE450, 4 μM
  proportion of apoptotic cells: 39.89%
[8]; 50 mg/kg i.p., immunofluorescence
  expression of proliferation marker Ki-67 in tumor: decreased significantly
[8]; 50 mg/kg i.p., immunohistochemistry
  expression of P-ERK (Tyr202/204) in tumor: decreased significantly
[8]; [9]
  ESCC tumor volume: markedly reduced
  average tumor weight: markedly reduced
